Values quoted from earlier work as cited in patent US8053463B2, “PPAR active compounds” (Plexxikon Inc., priority 2007, dated 2011).

Experiments:
PPARδ = target: T1, PPARδ (Homo sapiens, UniProt Q03181)
T1 sequence (Q03181 1-441): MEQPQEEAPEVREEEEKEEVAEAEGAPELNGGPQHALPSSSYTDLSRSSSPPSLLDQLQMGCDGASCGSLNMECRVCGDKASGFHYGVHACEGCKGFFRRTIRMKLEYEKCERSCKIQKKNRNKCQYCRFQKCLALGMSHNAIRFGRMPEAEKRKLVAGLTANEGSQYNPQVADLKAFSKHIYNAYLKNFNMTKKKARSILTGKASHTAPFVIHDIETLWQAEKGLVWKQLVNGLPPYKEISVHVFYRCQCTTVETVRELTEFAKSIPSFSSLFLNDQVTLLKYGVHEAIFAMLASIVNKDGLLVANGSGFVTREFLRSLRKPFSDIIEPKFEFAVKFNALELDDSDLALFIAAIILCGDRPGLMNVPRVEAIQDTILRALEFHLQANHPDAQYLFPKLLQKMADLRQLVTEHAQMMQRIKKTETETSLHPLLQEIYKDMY

murine PPARα = target: T2, murine PPARα (Mus musculus, UniProt P23204)
T2 sequence (P23204 1-468): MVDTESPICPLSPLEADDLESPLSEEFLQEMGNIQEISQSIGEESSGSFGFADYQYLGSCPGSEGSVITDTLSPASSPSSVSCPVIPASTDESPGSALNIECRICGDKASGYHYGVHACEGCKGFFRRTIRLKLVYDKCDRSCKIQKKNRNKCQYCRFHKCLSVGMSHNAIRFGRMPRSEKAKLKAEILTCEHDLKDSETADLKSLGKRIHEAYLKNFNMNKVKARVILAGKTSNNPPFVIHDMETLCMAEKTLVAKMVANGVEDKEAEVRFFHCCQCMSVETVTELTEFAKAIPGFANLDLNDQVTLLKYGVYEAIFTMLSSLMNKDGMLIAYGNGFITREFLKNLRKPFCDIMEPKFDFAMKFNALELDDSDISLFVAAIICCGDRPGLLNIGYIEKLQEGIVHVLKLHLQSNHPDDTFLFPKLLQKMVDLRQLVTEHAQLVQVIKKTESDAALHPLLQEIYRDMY

Structure (SMILES): CCCc1c(OCCCOc2ccc(OCC(=O)O)cc2)ccc(C(C)=O)c1O [Compound L-165041]
- agonist selectivity for PPARδ over PPARγ (PPARδ): approximately 30 fold
- activity on murine PPARα (murine PPARα): inactive
